Measurements published in patent US20260193180A1, “AUTOPHAGY INDUCING COMPOUNDS AND USES THEREOF” (SAMSARA THERAPEUTICS INC., priority 2022, published 2026).

Assays:
[1] = test system: dopaminergic Tyrosine hydroxylase (TH)-positive neurons; assay: Cellular model of Parkinson's disease, MPP+ injury of primary mesencephalic culture; format: cell-based, rat; details: 0.5 μM, MPP+ 4 μM for 48 h
Protocol: This model (supplied by Neuro-Sys SAS, France) is based on a primary culture of dopaminergic Tyrosine hydroxylase (TH)-positive neurons injured with the dopaminergic neurons-specific toxin (DA-toxin) 1-methyl-4-phenyl-1,2,3,6 tetrahydropyridine (MPTP) (Dauer and Przedborski, 2003). Any substances reducing DA-toxin neurotoxicity may be useful as a new therapeutic agent for the treatment or prevention of PD.
Primary culture of mesencephalic neurons: Rat dopaminergic neurons were cultured as described by Visanji et al., 2008 and Callizot et al., 2019. Briefly, pregnant female rat (Wistar) of 15 days of gestation were killed using a deep anesthesia with CO2 chamber and a cervical dislocation. The midbrains obtained from 15-day-old rat embryos (Janvier, France) were dissected under a microscope. The embryonic midbrains will be removed and placed in ice-cold medium of Leibovitz (L15) containing 2% of Penicillin-Streptomycin (PS) and 1% of bovine serum albumin (BSA). The ventral portion of the mesencephalic flexure, a region of the developing brain rich in dopaminergic neurons, was used for the cell preparations.
The midbrains were dissociated by trypsinisation for 20 min at 37° C. (solution at a final concentration of 0.05% trypsin and 0.02% EDTA). The reaction was stopped by the addition of Dulbecco's modified Eagle's medium (DMEM) containing DNAase I grade II (0.5 mg/mL) and 10% of foetal calf serum (FCS). Cells were then mechanically dissociated by 3 passages through a 10 ml pipette. Cells were then centrifuged at 180×g for 10 min at +4° C. on a layer of BSA (3.5%) in L15 medium. The supernatant was discarded and the cell pellets re-suspended in a defined culture medium consisting of Neurobasal supplemented with B27 (2%), L-glutamine (2 mM) and 2% of PS solution and 10 ng/mL of Brain-derived neurotrophic factor (BDNF) and 1 ng/mL of Glial-Derived Neurotrophic Factor (GDNF). Viable cells were counted in a Neubauer cytometer using the trypan blue exclusion test. […]

[2] = test system: Prp-TDP43 mice; assay: Mouse model of Amyotrophic Lateral Sclerosis (ALS); details: 30 mg/kg once per day, oral gavage; for increase in mean CAMP amplitude compared to the vehicle controlled group: sciatic nerve

CCOc1ccc(Cl)cc1CN1CC[C@@H](CN)C1.Cl [Compound 12, (S)-(1-(5-chloro-2-ethoxybenzyl)pyrrolidin-3-yl)methanamine hydrochloride]
neurite network of TH positive neurons [1]: protected | neuronal survival (total number of TH positive neurons) [1]: improved | α-Synuclein aggregation in dopaminergic neurons [1]: reduced | body weight compared to the vehicle group [2]: increase | mortality ([2]; 60 days): No mortality was observed | pathological clinical signs ([2]; 60 days): No pathological clinical sign was observed | decrease in mean NfL concentration (plasma) compared to the vehicle controlled group ([2]; at three months of age): 54% | increase in mean NCV (nerve conduction velocity) compared to the vehicle controlled group ([2]; at three months of age): 139% | increase in mean rotarod latency compared to the vehicle controlled group ([2]; at three months of age): 99% | increase in mean CAMP amplitude compared to the vehicle controlled group ([2]; at three months of age): 73% | decrease in mean NfL concentration (plasma) compared to the vehicle controlled group ([2]; at two months of age): 48% | increase in mean rotarod latency compared to the vehicle controlled group ([2]; at two months of age): 76% | increase in mean CAMP amplitude compared to the vehicle controlled group ([2]; at two months of age): 39%
